Measurements: publication PMC13635228 (Nature Communications, 2026)

Columns and labels:
[1] = test system: mouse C3aR; experiment: Transducer-coupling assays taken together; assay type: cell-based
[2] = test system: C3aR; settings: cited from earlier work
[3] = test system: human C3aR; experiment: Transducer-coupling assays taken together; assay type: cell-based

For `NC(N)=NCCC[C@H](NC(=O)COCC(c1ccccc1)c1ccccc1)C(=O)O` [SB290157, reference compound], the “activation of mouse C3aR” value ([1]; G protein activation or β-arrestin recruitment) is given as “did not activate mouse C3aR”, the agonistic activity ([2]; various cellular assays, ref [45]-[47]) is given as “agonistic activity” and the “agonist profile, G-protein activation” value ([3]; compared to C3a) is given as “partial agonist profile”. The βarr recruitment response ([3]; compared to C3a) was “weak response in βarr recruitment”.
In the case of “mC3a: full-length recombinant mouse complement anaphylatoxin C3a (S1-R78), expressed in E. coli”, the “potency and efficacy, human vs. mouse C3a” value ([1]; mouse C3aR) is reported as “equally potent and efficacious” and the efficacy [3] is reported as “full agonists”.
In the case of “mC3a-d-Arg: mouse C3a with terminal arginine removed”, the activity ([1]; mouse C3aR) is reported as “weak but measurable activity”.
For “C3a^-d-Arg: C3a with terminal arginine removed by carboxypeptidases; species not stated”, the “activity at human and mouse C3aR” value ([2]; ref [25],[30],[67]) is given as “very weak activity”.
With “hC3a: full-length recombinant human complement anaphylatoxin C3a, natural agonist of C3aR, expressed in E. coli” the “potency and efficacy, human vs. mouse C3a” value ([1]; mouse C3aR) was “equally potent and efficacious”, the efficacy [3] was “full agonists” and the “potency, human vs. mouse C3a” value [3] was “more potent”.
